What all share (type): physicochemical
The nature of series [1]: Test for stability: percentage of compound remaining after storage at 60°C, measured by liquid chromatography. To be noted: for remaining at 480 h: buffer with hco-60, Table 5, 0.05 g compound, 1.0 g HCO-60, pH buffer, 60°C, 20 days, read-out: Stability (as percentage of compound remained after stored at 60°C for 20 days). The procedure: The difference in the stability of Compound (III) was tested, depending on the solubilizer added thereto. The stability was represented by the percentage (%) of the amount of Compound (III) remained after storage. Precisely, each sample formulation shown in Table 2 below was put in a glass tube with a screw cap and stored for 10 days and 20 days both at 60°C, whereupon the percentage of the amount of the compound remained after the storage was measured by liquid chromatography. From the value thus measured, the stability of the compound was evaluated.
Next, to examine the influence of the concentration of the solubilizer on the stability of Compound (III), experiments were carried out where the concentration of the nonionic surfactant to be added was stepwise increased while the concentration of Compound (III) was kept constant. Precisely, each sample formulation shown in Table 3 below was stored for 10 days and 20 days both at 60°C, whereupon the percentage (%) of the amount of Compound (III) remained after the storage was measured by liquid chromatography. On the basis of the thus-measured percentage, the stability of the compound was evaluated.

Series [2] in a line: Test for solubility: dissolution of the compound observed with the naked eye. To be noted: Table 5; 0.05 g compound, 1.0 g HCO-60, pH buffer. The procedure: To test the solubility of the above-mentioned compound, various experiments were carried out under different conditions in the presence or absence of a nonionic surfactant.
Formulation No. 1 was prepared by heating and dissolving 0.05 g of Compound (III) and 0.5 g of polyoxyethylene-hardened castor oil (HCO-60) in a beaker at about 60°C followed by gradually adding thereto lactic acid/sodium lactate buffer (pH 5.0) as the pH buffer while stirring to dissolve them.

Series [3] in a line: Mean particle size of formed micelles by light-scattering photometry. Further details: key: - : No micelle detected. The conditions noted are these: Compound (III) 0.005 W/V %. The source says:
It was confirmed that, when the concentration of Compound (III) was 0.005 W/V % and when the concentration of HCO-60 was 0.10 W/V % or more, micelles having a mean particle size of from 16 to 20 nm were formed.

Series [4] can be described thus: Solubility of the compound in solvents (description of the substance).

The text below walks through data of patent EP0639376A1, “Liquid composition containing amide derivative” (TERUMO KABUSHIKI KAISHA, priority 1993, dated 1995).

As for `CCOC(=O)Oc1ccc(/C=C/C(=O)NCCN2CCC(OC(c3ccccc3)c3ccccc3)CC2)cc1OC(=O)OCC` [(VI)], the remaining at 480 h in series [1] worked out at 90.9%. Further, the Solubility entry in series [2] is recorded as “Dissolved clear”.
With `CCOC(=O)Oc1ccc(/C=C/C=C/C(=O)NCCN2CCC(OC(c3ccccc3)c3ccccc3)CC2)cc1OC(=O)OCC` [(VII)], the remaining at 480 h in series [1] came to 92.6%. Also, in series [2], the Solubility result was “Dissolved clear”.
As for `CCOC(=O)Oc1ccc(/C=C/C=C/C(=O)NCCN2CCC(OC(c3ccccc3)c3ccccc3)CC2)cc1OC` [Compound (III), 1-[{5'-(3''-methoxy-4''-ethoxycarbonyloxyphenyl)-2',4'-pentadienoyl}aminoethyl]-4-diphenylmethoxypiperidine], the “stabilization of Compound (III)” value in series [1] (result in words, from Table 3, HCO-60 0.10 W/V % or more) is recorded as “almost satisfactorily stabilized”. The “Mean Particle Size” value in series [3] (HCO-60 0.05 W/V %) is “-”; in series [3] (HCO-60 0.10 W/V %) it was 16.2 +/- 3.7 nm; in series [3] (HCO-60 0.25 W/V %), 19.6 +/- 4.3 nm; in series [3] (HCO-60 0.50 W/V %), 18.3 +/- 4.5 nm; in series [3] (HCO-60 1.00 W/V %) it was 18.8 +/- 4.2 nm. The solubility in acetone entry in series [4] is given as “easily soluble”. For the same compound, the solubility in acetonitrile result in series [4] is “soluble in acetonitrile to some degree”. The solubility in dichloroethane result in series [4] is listed as “easily soluble”. In addition, in series [4], the solubility in ethanol entry is “hardly soluble”. Also, the solubility in water entry in series [4] was “almost insoluble”.
In the case of `CCOC(=O)Oc1ccc(/C=C/C(=O)NCCN2CCC(OC(c3ccccc3)c3ccccc3)CC2)cc1OC` [Compound (IV)], the remaining at 480 h in series [1] was determined as 91.2%. Besides, in series [2], the Solubility result is reported as “Dissolved clear”.
The corresponding values for `CCOC(=O)Oc1ccc(/C=C/C=C/C(=O)NCCCN2CCN(C(c3ccccc3)c3ccccc3)CC2)cc1OC` [Compound (V)] are 92.1% and “Dissolved clear”.
